Assay results published in patent US6537744B1, “Use of biomarkers in saliva to evaluate the toxicity of agents and the function of tissues in both biomedical and environmental applications” (priority 1995, dated 2003).
Where “and” joins values, the source holds several entries; their conditions need not be identical. Equal entries are not always repeated.

How the values were obtained:
[1] = test system: carboxylase in human saliva; assay: Inhibition of carboxylase in human saliva (p-nitrophenylvalerate hydrolysis, 400 nm); format: biochemical; conditions: for inhibition of carboxylase (in words): human saliva
Experimental: The carboxylase activity in saliva samples is monitored by the hydrolysis of p-nitrophenylvalerate to the readily detectable p-nitrophenol. The concentration of p-nitrophenol in the sample is measured spectrophotometrically at 400 nm, and the value is calculated from p-nitrophenol standard curve (Table 3 and FIG. 4). Values for carboxylase activity in saliva (nmol. min-1 per mL of saliva) are presented in Tables 4-8 and showing in FIG. 5 and FIG. 6. The average specific activity for carboxylase in human saliva is about 47 nmol min^−1 per mL.
The assay for carboxylase consists of 4 mL of tris-HCl buffer (pH 7.0) that contain 25 μL of p-nitrophenylvalerate (13.8 mg/mL of alcohol) and 50-500 μL of human saliva. […] In the inhibition study, the agent is incubated with saliva for about 15-20 minutes before the addition of p-nitrophenylvalerate. Organophosphate concentration is verified by gas chromatography using standard methods as described by Knaak et al. (1993).

[2] = test system: acetylcholinesterase in human saliva; assay: Inhibition of acetylcholinesterase in human saliva (acetylthiocholine iodide/DTNB, 405 nm); format: biochemical; conditions: for inhibition of acetylcholinesterase (in words): human saliva
Experimental: The hydrolysis of acetylthiocholine iodide (an analog of acetylcholine iodides) by the saliva enzyme or enzymes is measured by generating the yellow 5-thio-2-nitrobenzoate with an absorbance maximum at 405 nm. The rate of change of absorbance is directly proportional to acetylcholinesterase activity. In this procedure, 0.1-1 mL of saliva (3.261 mg protein/mL) is incubated with 100 μL of acetylthiocholine iodide (0.018M) (lot #10H0653 Sigma) for 30-180 minute at 37° C. in 4.0 mL phosphate buffer (pH 7.8). After the incubation, a 0.2 mL of DTNB is added and the sample is read at 405 nm. The enzyme activity is calculated from glutathione standard curve (Table 9 and FIG. 9). Values for AChE activity in human saliva and enzyme kinetics are presented in Tables 10-14 and show in FIG. 10 through FIG. 14.
The AChE specific activity in saliva is about 4 nmol minute^−1 per mL of saliva. […] The percent of enzyme inhibition by organophosphate is calculated and presented in Tables 13-14 and showing in FIG. 15.

[3] = 60 μg/mL, Test #2, 50 μL saliva, 20 min preincubation
[4] = 500 μg/ml, test #1, 200 μL saliva, 15 min preincubation, 37° C.
[5] = 240 μg of isofenphos in 4.0 mL, Test #2, 200 μL saliva, 37° C.
[6] = 22 μg/mL, Test #2, 50 μL saliva, 20 min preincubation
[7] = 29 μg/ml in Tris/Citrate, test #1, 200 μL saliva, 15 min preincubation, 37° C.

| SMILES | % Act. [1, 3] [%] | Absorb. at 400 nm for 65 min. [1, 3] | Absorb. at 400 nm for 100 min. [1, 3] | % Inhib. [1, 4] [%] | Absorb. at 400 nm for 20 min. [1, 4] | Absorb. at 400 nm for 60 min. [1, 4] | inhibition of carboxylase (in words) [1] | Absorb. at 405 nm for 50 min. [2, 5] | Absorb. at 405 nm for 110 min. [2, 5] | Absorb. at 405 nm for 165 min. [2, 5] | Activity ([2]; 240 μg of isofenphos in 4.0 mL, Test #2, 200 μL saliva, 37° C. (no inhibitor: 1.14)) [nmol/min] | inhibition of acetylcholinesterase (in words) [2] | % Act. [1, 6] [%] | Absorb. at 400 nm for 20 min. [1, 6] | Absorb. at 400 nm for 100 min. [1, 6] | % Inhib. [1, 7] [%] | Absorb. at 400 nm for 20 min. [1, 7] | Absorb. at 400 nm for 60 min. [1, 7] |
| --- | --- | --- | --- | --- | --- | --- | --- | --- | --- | --- | --- | --- | --- | --- | --- | --- | --- | --- |
| CCOP(=S)(NC(C)C)Oc1ccccc1C(=O)OC(C)C (centres unmarked) [Isofenphos, isofenphos] | 92 | 2.0 and 1.1 | 2.0 and 1.5 | 84 | .33 | .75 | inhibited | .41 | .43 | .51 | 1.02 | inhibited |  |  |  |  |  |  |
| CCOP(=O)(OCC)Oc1ccc([N+](=O)[O-])cc1 [Paraoxon, paraoxon] |  |  |  |  |  |  | inhibited |  |  |  |  | inhibited | 40 | .23 | .76 | 99 | .03 | .14 |
